Data taken from patent US20230096789A1, “PHARMACEUTICAL COMPOSITION FOR INHIBITING INFLAMMATORY RESPONSE COMPRISING HYDROXYUREA” (priority 2020, published 2023).
Read-outs that look alike come from different tables or passages of the source.

Experiments:
Lee = test: In vitro antiviral effect, MTT cell viability in infected MDCK cells; format: cell-based, influenza B virus; conditions: 0.001 pfu/cell, 72 hours, hydroxyurea up to 1,561 μg/ml
H1N1 PR8 = test: as above; format: cell-based, influenza A virus; conditions: 0.001 pfu/cell, 72 hours, hydroxyurea up to 1,561 μg/ml
H3N2 HongKong = test: as above; format: cell-based, influenza A virus; conditions: 0.001 pfu/cell, 72 hours, hydroxyurea up to 1,561 μg/ml
[1] = system: mice infected with H1N1 influenza A (PR8 strain) virus; format: in vivo, mice (BALB/c)
[2] = system: mice with sepsis induced by the Western Reserve strain of vaccinia virus; conditions: mouse, in vivo
[3] = system: mice infected with H1N1 influenza A virus (maPR8); test: Influenza virus-induced sepsis model (II), body weight and survival (Experimental Example 6); format: in vivo, BALB/c mice
[4] = system: mice infected with the WR strain of vaccinia virus; format: in vivo, BALB/c mice; conditions: for survival: WR low (1×10^5 pfu) or high (1×10^7 pfu) dose, HU 50 mg/kg/day i.p. days 0 to 14, G-CSF 25 μg/kg/day i.p. days 0 to 5; for lung tissue histology: compared with other groups
mice given LPS = test: LPS-induced sepsis model (II), survival and ANC (Experimental Example 7); format: in vivo, BALB/c mice; conditions: for survival: until day 12; for ANC: blood on day 12
Description: Twenty-one BALB/c mice (about 8 weeks old) were divided into 3 groups (LPS, LPS+HU_30, LPS+HU_60; n=7/group). All mice received intraperitoneal administration of LPS at 10 mg/kg on day 0. The mice of the group (LPS+HU_30) received hydroxyurea (30 mg/kg/day, from day -1 to day 3) once a day, and the mice of the group (LPS+HU_60) received hydroxyurea (60 mg/kg/day, from day -1 to day 3) twice a day. Survival of the mice of each group was measured until day 12 at 3-day intervals, and blood samples were collected on day 12 to check the absolute neutrophil count in blood.

[5] = system: mouse model with sepsis induced by lipopolysaccharide (LPS, from Escherichia coli O55: B5); test: Bacterial LPS-induced sepsis model, survival (Experimental Example 1); format: in vivo, mice; conditions: LPS 10 mg/kg i.p., n=7
Description: To identify whether treatment with hydroxyurea could increase survival through an immune response in a mouse model with sepsis induced by lipopolysaccharide (LPS, from Escherichia coli O55: B5L2880, Sigma), an animal experiment was performed.
Each group consisted of 7 mice, and intraperitoneal administration of LPS was performed at 10 mg/kg on day 0. Two groups excluding a control group were subjected to intraperitoneal administration of hydroxyurea at 30 mg/kg once a day or twice a day for 5 days per one week starting from the day before the treatment with LPS (FIG. 1).

MDCK cells = test: Cytotoxicity (CC50) by MTT assay; conditions: 72 hours
[6] = system: monkeys with systemic inflammatory syndrome induced by the Western Reserve strain of vaccinia virus
[7] = system: mice given wild-type WR strain of vaccinia virus; test: Histological analysis (H&E) of liver and lung tissues after wild-type WR vaccinia virus (Experimental Example 2.2); format: in vivo; conditions: wild-type WR 1×10^7 pfu intranasal, HU 50 mg/kg, G-CSF 25 μg/kg
[8] = system: monkeys with systemic inflammatory syndrome induced by vaccinia virus VV^tk−; format: in vivo, cynomolgus monkeys
Description: Male cynomolgus monkeys (n=3) aged 45 to 55 months were subjected to systemic administration of only VV^tk− (1×10^8 pfu), which induces a systemic inflammatory response, or both VV^tk− and hydroxyurea (VV^tk−: 1×10^8 pfu, HU: 80 mg/kg/day and 30 mg/kg/day). Then, toxicity was evaluated by measuring levels of systemic inflammation and pustules, body temperature, body weight, and the like.

[9] = system: mice infected with the WR strain of vaccinia virus; format: in vivo; conditions: WR 1×10^5 pfu; HU 80 mg/kg/day on days 2 to 14, started 2 days after infection
[10] = WR 1×10^8 pfu + HU, vs virus only
[11] = co-administration vs virus only

NC12CC3CC(CC(C3)C1)C2 [AMT, amantadine]
antiviral effect (Lee): next clear effect | antiviral effect (H1N1 PR8): next clear effect | antiviral effect (H3N2 HongKong): next clear effect

CCOC(=O)C1=C[C@@H](OC(CC)CC)[C@H](NC(C)=O)[C@@H](N)C1 [Tamiflu, oseltamivir]
survival ([1]; mouse, in vivo): survived regardless of the concentration

NC(=O)NO [hydroxyurea]
number of virus particles in blood [2]: highest number of virus particles | survival until day 21 [2]: 40% | survival ([3]; hydroxyurea 50 mg/kg q.d. days -2 to 14, until day 20, n=7): 70% | body weight ([3]; hydroxyurea 50 mg/kg q.d., loss until day 10): recovered to the initial weight on day 20 | absolute neutrophil count (ANC) ([4]; WR high dose (1×10^7 pfu), HU 50 mg/kg/day): decreased absolute neutrophil count | survival [4]: increased survival | lung tissue histology [4]: improved aspect | infection by immunofluorescence staining for protein A56 (bronchi) ([4]; lung tissue, between saline, G-CSF and HU groups): no significant difference between the three groups | antiviral effect (Lee): did not show any antiviral effect | survival (mice given LPS; LPS+HU_30: 30 mg/kg/day, day -1 to day 3, once a day): remarkably increased survival | ANC (mice given LPS; LPS+HU_30): decreased ANC | survival (mice given LPS; LPS+HU_60: 60 mg/kg/day, day -1 to day 3, twice a day): remarkably increased survival | ANC (mice given LPS; LPS+HU_60): decreased ANC | survival until day 12 ([5]; hydroxyurea 30 mg/kg i.p. once a day): 17% | survival until day 12 ([5]; hydroxyurea 30 mg/kg i.p. twice a day): 43% | CC50 (MDCK cells): 1,561 μg/ml | antiviral effect (H1N1 PR8): did not show any antiviral effect | systemic inflammation and skin rash lesions (pustules) ([6]; WR 1×10^8 pfu + HU 80 mg/kg/day and 30 mg/kg/day, vs virus only): remarkably weakened systemic inflammation and inhibition of skin rash lesions such as pustules | body temperature [6, 10]: did not show any significant increase in body temperature | body weight loss [6, 10]: no difference in body weight loss | absolute lymphocyte count (ALC) ([6]; co-administration group, blood): decreased on average and remained stable | absolute neutrophil count (ANC) ([6]; co-administration group, blood): decreased on average and remained stable | white blood cell count (WBC) ([6]; co-administration group, blood): decreased on average and remained stable | number of virus particles in blood ([6]; day 8 after virus administration, co-administration vs virus only): no significant difference | severity in leakage and exudate levels in the alveoli and ischemic change level in the liver tissue (order of groups) [7]: in the order of the group having received hydroxyurea, the group having received G-CSF, and the control group | systemic inflammation and skin rash lesions (pustules) ([8]; VV^tk− 1×10^8 pfu + HU 80 mg/kg/day and 30 mg/kg/day, vs virus only): remarkably weakened systemic inflammation and inhibition of skin rash lesions such as pustules | absolute neutrophil count ([8]; co-administration): decreased on average and remained stable | number of virus particles ([8]; co-administration): decreased on average and remained stable | body temperature [8, 11]: did not show any significant increase in body temperature | body weight loss [8, 11]: no difference in body weight loss | body weight / condition course ([1]; mouse, in vivo): returned to a healthy condition on day 18 | surviving mice ([1]; n=7): 5 mice | protective effect (survival, body weight) [9]: protective effect | antiviral effect (H3N2 HongKong): did not show any antiviral effect

NC(=O)c1ncn([C@@H]2O[C@H](CO)[C@@H](O)[C@H]2O)n1 [ribavirin]
antiviral effect (Lee): next clear effect | antiviral effect (H1N1 PR8): next clear effect | antiviral effect (H3N2 HongKong): next clear effect

B1: G-CSF (protein, UniProt P09919 31-207, looked up)
Granulocyte …: TPLGPASSLPQSFLLKCLEQVRKIQGDGAALQEKLVSECATYKLCHPEELVLLGHSLGIPWAPLSSCPSQALQLAGCLSQLHSGLFLYQGLLQALEGISPELGPTLDTLQLDVADFATTIWQQMEELGMAPALQPTQGAMPAFASAFQRRAGGVLVASHLQSFLEVSYRVLRHLAQP
time within which all mice died after administration of the WR strain [2]: ≤ 14 days | survival [4]: decreased survival | absolute neutrophil count (ANC) ([4]; WR low or high dose, G-CSF 25 μg/kg/day): remarkably increased absolute neutrophil count | lung tissue histology [4]: lung edema was observed | severity in leakage and exudate levels in the alveoli and ischemic change level in the liver tissue (order of groups) [7]: in the order of the group having received hydroxyurea, the group having received G-CSF, and the control group
